In the supplement of paper PMC11061612:

Columns and labels:
Assay in all cases: Bliss excess, mean over the matrix (fraction); higher = more synergy
[1] = system: PFSK-1 (Other Solid Carcinomas)
Method in brief: (§1)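 After 24 hours at 37°C and 5% CO2 in 1536-well plates, cells in DMEM/F12 or RPMI plus 10% FBS received two-drug dose matrices for 72 hours. Viability came from CellTiter-Glo 2.0 luminescence and was scaled as inhibition, anchored at 0 by vehicle wells and at 1 by blank wells. Combination Emax is taken as the second-highest inhibition in the matrix, and Bliss excess as the observed combination effect less EA + EB − EA·EB, with EA and EB the single-agent effects.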

[2] = system: EMC-BAC-2 (Non-Small Cell Lung Carcinoma)
Method in brief: as §1

[3] = system: OCUB-M (Breast Carcinoma)
Method in brief: as §1

[4] = system: OVISE (Ovarian Carcinoma)
Method in brief: as §1

[5] = system: OCUM-1 (Gastric Carcinoma)
Method in brief: as §1

[6] = system: HuP-T3 (Pancreatic Carcinoma)
Method in brief: as §1

[7] = system: EW-3 (Ewing's Sarcoma)
Method in brief: as §1

[8] = system: PF-382 (T-Lymphoblastic Leukemia)
Method in brief: as §1

[9] = system: KYSE-50 (Esophageal Squamous Cell Carcinoma)
Method in brief: as §1

[10] = system: H-EMC-SS (Chondrosarcoma)
Method in brief: as §1

[11] = system: EW-18 (Ewing's Sarcoma)
Method in brief: as §1

[12] = system: NCI-H513 (Other Solid Carcinomas)
Method in brief: as §1

[13] = system: DG-75 (Burkitt's Lymphoma)
Method in brief: as §1

[14] = system: GOTO (Neuroblastoma)
Method in brief: as §1

[15] = system: LC4-1 (B-Lymphoblastic Leukemia)
Method in brief: as §1

[16] = system: EW-13 (Ewing's Sarcoma)
Method in brief: as §1

[17] = system: BT-20 (Breast Carcinoma)
Method in brief: as §1

[18] = system: EBC-1 (Squamous Cell Lung Carcinoma)
Method in brief: as §1

[19] = system: NB7 (Neuroblastoma)
Method in brief: as §1

[20] = system: LOU-NH91 (Squamous Cell Lung Carcinoma)
Method in brief: as §1

With `CC1(C)CCC(CN2CCN(c3ccc(C(=O)NS(=O)(=O)c4ccc(NCC5CCOCC5)c([N+](=O)[O-])c4)c(Oc4cnc5[nH]ccc5c4)c3)CC2)=C(c2ccc(Cl)cc2)C1` [Venetoclax] + C1CN(CCC1(C(=O)N[C@@H](CCO)C2=CC=C(C=C2)Cl)N)C3=NC=NC4=C3C=CN4 [Capivasertib] (first compound max 1 µM, 7x7, partner max 3 µM) the Bliss excess [1] was 0.0634, the Bliss excess [2] was -0.116 and the Bliss excess [3] was -0.0222. For the same molecule, the Bliss excess [4] was -0.0059, the Bliss excess [5] was -0.0252 and the Bliss excess [6] was -0.0387. It also gave a Bliss excess [7] of 0.0001, a Bliss excess [8] of -0.0144 and a Bliss excess [9] of -0.0418. For the same molecule, the Bliss excess [10] was -0.0204, the Bliss excess [11] was -0.0281 and the Bliss excess [12] was -0.071. It also gave a Bliss excess [13] of -0.0146, a Bliss excess [14] of 0.0111 and a Bliss excess [15] of 0.0227. The Bliss excess [16] was -0.0302, the Bliss excess [17] was -0.035 and the Bliss excess [18] was -0.0395. It also gave a Bliss excess [19] of -0.0301 and a Bliss excess [20] of -0.0805.

In the case of `COc1nnc2ccc(N3CCC(c4ccc(OCCN5CCN(C)C(=O)[C@H]5C)cc4)CC3)nn12` [AZD5153] + Cc1c2c(nn1C)CSCc1cc(n(C)n1)CSc1cc(c3ccccc3c1)OCCCc1c(C(=O)O)n(C)c3c-2c(Cl)ccc13 [AZD5991] (first compound max 1 µM, 7x7, partner max 1 µM), the Bliss excess [1] is reported as 0.0454, the Bliss excess [2] is reported as -0.0589 and the Bliss excess [3] is reported as 0.0063. The Bliss excess [4] was -0.039, the Bliss excess [5] was 0.0024 and the Bliss excess [6] was 0.0051. The Bliss excess [7] was 0.0114, the Bliss excess [8] was 0.0145 and the Bliss excess [9] was 0.0144. For the same molecule, the Bliss excess [10] was -0.0212, the Bliss excess [11] was 0.0235 and the Bliss excess [12] was -0.0287. It also gave a Bliss excess [13] of -0.0432, a Bliss excess [14] of -0.0096 and a Bliss excess [15] of -0.0736. For the same molecule, the Bliss excess [16] was -0.0502, the Bliss excess [17] was 0.0213 and the Bliss excess [18] was -0.0528. It also gave a Bliss excess [19] of 0.0105 and a Bliss excess [20] of -0.0449.

With `CN(CCO)CC[C@H](CSc1ccccc1)Nc1ccc(S(=O)(=O)NC(=O)c2ccc(N3CCC([C@@H](O)c4ccccc4-c4ccc(Cl)cc4)CC3)cc2)cc1S(=O)(=O)C(F)(F)F` [AZD4320] + C[C@@H](Nc1cc(F)cc(F)c1)c1cc(C(=O)N(C)C)cc2c(=O)cc(N3CCOCC3)oc12 [AZD8186] (first compound max 1 µM, 7x7, partner max 3 µM) the Bliss excess [1] was 0.0634, the Bliss excess [2] was 0.0472 and the Bliss excess [3] was 0.0137. For the same molecule, the Bliss excess [4] was -0.0322, the Bliss excess [5] was -0.0284 and the Bliss excess [6] was 0.038. For the same molecule, the Bliss excess [7] was -0.0324, the Bliss excess [8] was 0.0836 and the Bliss excess [9] was 0.0097. For the same molecule, the Bliss excess [10] was -0.0277, the Bliss excess [11] was 0.0747 and the Bliss excess [12] was 0.0113. It also gave a Bliss excess [13] of 0.0548, a Bliss excess [14] of 0.0279 and a Bliss excess [15] of 0.0908. The Bliss excess [16] was -0.015, the Bliss excess [17] was 0.0586 and the Bliss excess [18] was 0.0576. For the same molecule, the Bliss excess [19] was 0.0133 and the Bliss excess [20] was -0.0046.

For `Cn1cnc2c(F)c(Nc3ccc(Br)cc3Cl)c(C(=O)NOCCO)cc21` [Selumetinib] + C=CCn1c(=O)c2cnc(Nc3ccc(N4CCN(C)CC4)cc3)nc2n1-c1cccc(C(C)(C)O)n1 [AZD1775] (first compound max 10 µM, partner max 1 µM), the Bliss excess [1] was -0.0549, the Bliss excess [2] was -0.0711 and the Bliss excess [3] was -0.0399. For the same molecule, the Bliss excess [4] was -0.0436, the Bliss excess [5] was -0.0137 and the Bliss excess [6] was 0.0194. For the same molecule, the Bliss excess [7] was -0.0564, the Bliss excess [8] was 0.0137 and the Bliss excess [9] was -0.0209. The Bliss excess [10] was -0.07, the Bliss excess [11] was -0.147 and the Bliss excess [12] was -0.0387. For the same molecule, the Bliss excess [13] was -0.0637, the Bliss excess [14] was -0.0119 and the Bliss excess [15] was 0.0314. For the same molecule, the Bliss excess [16] was -0.0742, the Bliss excess [17] was -0.0224 and the Bliss excess [18] was 0.0508. The Bliss excess [19] was -0.0305 and the Bliss excess [20] was -0.0144.

`COc1nnc2ccc(N3CCC(c4ccc(OCCN5CCN(C)C(=O)[C@H]5C)cc4)CC3)nn12` [AZD5153] + C[C@@H]1COCCN1C2=NC(=NC(=C2)C3(CC3)[S@](=N)(=O)C)C4=C5C=CNC5=NC=C4 [AZD6738] (first compound max 1 µM, 7x7, partner max 10 µM) gave a Bliss excess [1] of -0.0115, a Bliss excess [2] of 0.0722 and a Bliss excess [3] of 0.0415. For the same molecule, the Bliss excess [4] was -0.0213, the Bliss excess [5] was 0.0413 and the Bliss excess [6] was -0.0119. The Bliss excess [7] was -0.0647, the Bliss excess [8] was 0.0239 and the Bliss excess [9] was 0.0172. The Bliss excess [10] was -0.0001, the Bliss excess [11] was -0.0306 and the Bliss excess [12] was 0.0117. The Bliss excess [13] was -0.0203, the Bliss excess [14] was -0.0422 and the Bliss excess [15] was -0.0721. The Bliss excess [16] was 0.0682, the Bliss excess [17] was -0.0267 and the Bliss excess [18] was 0.0351. For the same molecule, the Bliss excess [19] was -0.0111 and the Bliss excess [20] was -0.0012.

`CC(=O)c1c(C)c2cnc(Nc3ccc(N4CCNCC4)cn3)nc2n(C2CCCC2)c1=O` [Palbociclib] + CC1(C)CCC(CN2CCN(c3ccc(C(=O)NS(=O)(=O)c4ccc(NCC5CCOCC5)c([N+](=O)[O-])c4)c(Oc4cnc5[nH]ccc5c4)c3)CC2)=C(c2ccc(Cl)cc2)C1 [Venetoclax] (first compound max 10 µM, 7x7, partner max 1 µM) showed a Bliss excess [1] of -0.0425, a Bliss excess [2] of 0.0004 and a Bliss excess [3] of -0.0276. The Bliss excess [4] was -0.0422, the Bliss excess [5] was -0.0515 and the Bliss excess [6] was -0.021. For the same molecule, the Bliss excess [7] was 0.0792, the Bliss excess [8] was 0.0031 and the Bliss excess [9] was 0.0238. It also gave a Bliss excess [10] of 0.0118, a Bliss excess [11] of 0.0221 and a Bliss excess [12] of -0.0574. For the same molecule, the Bliss excess [13] was -0.0084, the Bliss excess [14] was -0.0317 and the Bliss excess [15] was -0.0396. The Bliss excess [16] was -0.0311, the Bliss excess [17] was -0.0352 and the Bliss excess [18] was 0.0208. The Bliss excess [19] was -0.102 and the Bliss excess [20] was -0.0489.

`COc1nnc2ccc(N3CCC(c4ccc(OCCN5CCN(C)C(=O)[C@H]5C)cc4)CC3)nn12` [AZD5153] + CCN(CCO)CCCOc1ccc2c(Nc3cc(CC(=O)Nc4cccc(F)c4)[nH]n3)ncnc2c1 [AZD2811] (first compound max 1 µM, 7x7, partner max 1 µM) gave a Bliss excess [1] of -0.0478, a Bliss excess [2] of -0.0242 and a Bliss excess [3] of -0.133. It also gave a Bliss excess [4] of -0.017, a Bliss excess [5] of -0.0194 and a Bliss excess [6] of -0.0306. The Bliss excess [7] was -0.115, the Bliss excess [8] was -0.0108 and the Bliss excess [9] was -0.0309. For the same molecule, the Bliss excess [10] was -0.0226, the Bliss excess [11] was -0.0273 and the Bliss excess [12] was -0.108. For the same molecule, the Bliss excess [13] was 0.0144, the Bliss excess [14] was -0.0561 and the Bliss excess [15] was -0.0739. It also gave a Bliss excess [16] of 0.0251, a Bliss excess [17] of -0.0105 and a Bliss excess [18] of -0.0274. The Bliss excess [19] was -0.0296 and the Bliss excess [20] was -0.0363.
